Here are results for seven compounds from publication PMC12302229, “Synergy of triazolyl substituents at C1 and C3 of galactose for high-affinity and selective galectin-4C inhibition” (RSC Chemical Biology, 2025).

In assay [1] the target is T1, galectin-1 (Homo sapiens, UniProt P09382).
T1 construct: made in house
Briefly: competitive fluorescence polarization assay, galectin-1. The assay is classed as binding. The following applies: fluorescence polarization; Kd and SEM from 3–6 single point measurements; read-out: Dissociation constants, Galectin-1. The method, then:
(§1) Affinities of 1c–1z for galectin-1, -3, -4C, -4N, -7, -8C, -8N, -9C, and -9N were measured using an established fluorescence polarization assay[57] with reported probes and conditions.[19] […]
(§2) Fluorescence polarization experiments
(§3) Human galectin-11 and galectin-32 were expressed and purified as earlier described. Fluorescence polarization experiments were performed on a PheraStarFS plate reader with software PHERAstar Mars version 2.10 R3 (BMG, Offenburg, Germany). Specific experimental conditions were a galectin-1 concentration of 0.5 µM together with the fluorescent probe (3,3’-dideoxy-3-[4-(fluorescein-5-yl-carbonylaminomethyl)-1H-1,2,3-triazol-1-yl]-3’-(3,5-di-methoxybenzamido)-1,1’-sulfanediyl-di-β-D-galactopyranoside 1 concentration of 20 nM and a galectin-3 concentration of 0.2 µM together with the fluorescent probe (3,3’-dideoxy-3-[4-(fluorescein-5-yl-carbonylaminomethyl)-1H-1,2,3- […]
(§4) triazol-1-yl]-3’-(3,5-di-methoxybenzamido)-1,1’-sulfanediyl-di-β-D-galactopyranoside) concentration of 20 nM, respectively. Inhibitors were dissolved in dimethylsulfoxide (analytical grade) to a concentration of 20 mM, diluted with PBS to 3–6 different concentrations, and tested in duplicate twice for galectin affinity using a competitive fluorescence polarization assay as earlier described.3 The highest inhibitor concentrations tested were 1 mM due to solubility limitations at higher concentration. Dissociation constants average and SEM were calculated from two to eight single point measurements showing between 20–80% inhibition. […]
On the technique in general: Fluorescence polarisation rises when a labelled molecule tumbles more slowly, as on binding a larger partner.

For assay [2], the target named is T2, galectin-4C (Homo sapiens, UniProt P56470).
T2 construct: made in house; host or cells: E. coli BL-21 (DE3)
T2 sequence (P56470 185-323): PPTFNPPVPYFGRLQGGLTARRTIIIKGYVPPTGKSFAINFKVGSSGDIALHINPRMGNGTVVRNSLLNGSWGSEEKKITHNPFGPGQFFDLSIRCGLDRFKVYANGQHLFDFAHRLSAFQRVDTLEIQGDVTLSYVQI
Briefly: competitive fluorescence polarization assay, galectin-4C. The assay is classed as binding. The conditions noted are these: for Kd: fluorescence polarization, x/y cells = only two data points revealed inhibition, both shown, > values estimated, no apparent binding at highest concentration, read-out: Dissociation constants, Galectin-4C. On the procedure:
Affinities of 1c–1z for galectin-1, -3, -4C, -4N, -7, -8C, -8N, -9C, and -9N were measured using an established fluorescence polarization assay[57] with reported probes and conditions.[19]
Recombinant human galectin-4 C-terminal carbohydrate recognition domain was expressed and purified as previously reported.[57,70] Briefly, BL-21 (DE3) E. coli cells containing galectin-4C (amino acid sequence 185–323) was expressed, lysed by sonication and purified by affinity chromatography on a lactosyl-Sepharose column. Galectin-4C protein was eluted using 50 mM β-lactose in PBS, pH 7.4. Galectin-4C was then further gel purified using a Superdex 200/60 column (GE Healthcare) previously equilibrated in PBS, pH 7.4. The peak fractions collected containing galectin-4C were pooled and concentrated to 6.5 mg mL^−1 using an AmiconUltra 3K molecular weight cut-off centrifugal concentrator (Millipore, Billerica, MA, USA) and used directly in crystallisation studies. […]
as §4

In assay [3] the target is T3, galectin-3 (Homo sapiens, UniProt P17931).
T3 construct: made in house
T3 sequence (P17931 whole entry): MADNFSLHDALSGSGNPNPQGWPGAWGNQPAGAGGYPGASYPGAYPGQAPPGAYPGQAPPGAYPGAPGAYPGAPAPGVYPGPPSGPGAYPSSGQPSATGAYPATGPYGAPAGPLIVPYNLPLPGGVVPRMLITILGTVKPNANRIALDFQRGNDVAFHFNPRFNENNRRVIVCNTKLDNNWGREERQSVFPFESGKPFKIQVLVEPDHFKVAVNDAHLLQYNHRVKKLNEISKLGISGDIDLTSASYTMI
The assay is described as follows: competitive fluorescence polarization assay, galectin-3. The following applies: Kd and SEM from 3–6 single point measurements, > values estimated, no apparent binding at highest concentration, read-out: Dissociation constants, Galectin-3. The method, then: as §1, §2, §3, §4

For a further assay, the target named is T4, galectin-4N (Homo sapiens, UniProt P56470).
T4 construct: called “N” for the N-terminal CRD and “C” for the C-terminal
T4 sequence (P56470 19-150 limits assumed): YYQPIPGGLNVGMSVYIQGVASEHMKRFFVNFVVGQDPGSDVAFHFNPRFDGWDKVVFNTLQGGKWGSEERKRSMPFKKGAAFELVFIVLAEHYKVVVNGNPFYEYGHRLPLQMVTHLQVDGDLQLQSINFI
The assay is described as follows: competitive fluorescence polarization assay, galectin-4N. The assay is classed as binding. The conditions noted are these: Kd and SEM from 3–6 single point measurements, read-out: Dissociation constants, Galectin-4N. On the procedure:
as §1, §4

Assay [4] has as its target T3, galectin-3. The conditions noted are these: Table 1 reference compounds; read-out: Dissociation constants, Galectin-3; cited from earlier work.
The target in assay [5] is T2, galectin-4C. The following applies: Chart 1, known C1-galactosyl inhibitors; read-out: affinity, Galectin-4C; cited from earlier work.
The target of assay [6] is T1, galectin-1. The conditions noted are these: Table 1 reference compounds; read-out: Dissociation constants, Galectin-1; cited from earlier work.

Each structure is given as a SMILES string. Read-outs that look alike come from different tables or passages of the source. Where only a bound is given, the exact number is not on record here.

T1 sequence (P09382 whole entry): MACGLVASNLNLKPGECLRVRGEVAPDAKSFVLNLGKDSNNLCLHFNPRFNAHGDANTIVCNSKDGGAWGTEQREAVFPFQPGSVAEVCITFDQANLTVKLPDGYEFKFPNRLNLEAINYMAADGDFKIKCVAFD

As to `OC[C@H]1O[C@@H](Cn2cc(-c3ccc(C(F)(F)F)cc3)nn2)[C@H](O)[C@@H](n2cc(-c3ccccc3)nn2)[C@H]1O` [Compound 24b, 1-((4-(1-Phenyl-1H-1,2,3-triazol-4-yl)-1,3-dideoxy-β-D-galactopyranosyl)methyl)-4-(4-(trifluoromethyl)phenyl)-1H-1,2,3-triazole], the Kd at galectin-1 [1] was 440 ± 68 µM; on galectin-4C [2], 12 ± 1.7 µM; at galectin-3 [3], 720 ± 78 µM; at galectin-4N, 760 ± 32 µM. Also, the “galectin-4C selectivity over other galectins” value on galectin-4C [2] (ratio of Kd) is “twenty-onefold and up to thirty-sevenfold”.

As to `OC[C@H]1O[C@@H](Cn2cc(-c3cc(F)c(F)c(F)c3)nn2)[C@H](O)[C@@H](n2cc(-c3ccccc3)nn2)[C@H]1O` [Compound 24d], the Kd on galectin-1 [1] was 240 ± 5 µM; on galectin-4C [2] it was 22 ± 2.8 µM; on galectin-3 [3], 91 ± 2 µM; at galectin-4N, 130 ± 23 µM.

`OC[C@H]1O[C@@H](Cn2cc(-c3ccccc3)nn2)[C@H](O)[C@@H](n2cc(-c3ccccc3)nn2)[C@H]1O` [Compound 24c, 1-((4-(1-Phenyl-1H-1,2,3-triazol-4-yl)-1,3-dideoxy-β-D-galactopyranosyl)methyl)-4-phenyl-1H-1,2,3-triazole]: the Kd at galectin-1 [1] is 140 ± 5 µM; on galectin-4C [2], 19 ± 2.9 µM; on galectin-3 [3] it was 90 ± 13 µM; at galectin-4N, 290 ± 32 µM.

Take `OC[C@H]1O[C@@H](Cn2cc(-c3ccc(F)cc3)nn2)[C@H](O)[C@@H](n2cc(-c3ccccc3)nn2)[C@H]1O` [Compound 24a]: the Kd was 220 ± 10 µM at galectin-1 [1], 9.5 ± 1.3 µM at galectin-4C [2], 200 ± 32 µM at galectin-3 [3] and 130 ± 20 µM on galectin-4N. Moreover, the “fold stronger affinity for galectin-4C compared to galectin-1 and galectin-3” value on galectin-4C [2] (ratio of Kd) worked out at 20 fold. Besides, the “galectin-4C selectivity over other galectins” value at galectin-4C [2] (ratio of Kd) is “twenty-onefold and up to thirty-sevenfold”.

On to `OC[C@H]1O[C@@H](c2cn(-c3ccccn3)nn2)[C@H](O)[C@@H](n2cc(-c3ccccc3)nn2)[C@H]1O` [Compound 16b, 1,3-Dideoxy-1-(1-(2-pyridyl)-1H-1,2,3-triazol-4-yl)-3-(4-(phenyl)-1H-1,2,3-triazolyl)-β-D-galactopyranosyl], for which the Kd on galectin-1 [1] is 180 ± 1 µM; on galectin-4C [2], 9.6 ± 2.3 µM; at galectin-3 [3] it was 34 ± 3 µM; on galectin-4N it was 240 ± 54 µM. Besides, the “fold better galectin-4C affinity compared to 1a–b” value on galectin-4C [2] (effect of adding the C3 phenyltriazolyl) is no more than 79 fold.

For the compound `OC[C@H]1O[C@@H](c2cn(-c3ccccc3F)nn2)[C@H](O)[C@@H](O)[C@H]1O` [Compound 1a], the Kd at galectin-3 [4] is 880 µM; at galectin-4C [5], 780 µM; on galectin-1 [6] it was 170 µM.

Consider `OC[C@H]1O[C@@H](c2cn(-c3ccccc3F)nn2)[C@H](O)[C@@H](n2cc(-c3ccccc3)nn2)[C@H]1O` [Compound 16a, 1,3-Dideoxy-1-(1-(2-fluorophenyl)-1H-1,2,3-triazol-4-yl)-3-(4-(phenyl)-1H-1,2,3-triazolyl)-β-D-galactopyranosyl], for which the Kd on galectin-1 [1] is 280 ± 39 µM; on galectin-4C [2], 18 ± 2 µM; on galectin-3 [3], 34 ± 1 µM; on galectin-4N it was 90 ± 17 µM.
